Data as given in paper PMC10473160 (Cancer Research Communications, 2023).

Legend:
NCI-H1703 cells [1] = assay: High-content imaging assay (γH2AX, phospho-histone H3, cleaved caspase 3); format: cell-based, human; conditions: single-agent treatment, 72 hours
Procedure: Cells were seeded in 96-well plates at a density of 10,000 cells per well with 100 μL of media per well. The cells were cultured overnight. The next day, the cells were treated with doxorubicin (0.006 μmol/L), ZL-2201 (0.1, 0.3, 0.5, 1, and 3.6 μmol/L), and a combination of doxorubicin and ZL-2201 for the indicated times. The cells were washed in PBS and fixed by adding Cytofix/Perm buffer (BD; 554714) at room temperature for 20 minutes. Cells were washed with Perm wash buffer and blocked with Perm wash buffer and 3% FBS at room temperature for 1 hour. The cells were then incubated with primary antibodies against γH2AX-Ser139 (RRID:AB_309864; Millipore; 05-636), pPH3 (Ser10; 6G3; RRID:AB_331748; Cell Signaling Technology; 9706) and cleaved caspase 3 (Asp175; 5A1E; RRID:AB_2070042; Cell Signaling Technology; 9664) overnight at 4°C. Cells were washed the following day and incubated with secondary antibodies (Alexa Fluor 488; Invitrogen; A32723 or A32731 and Alexa Fluor 647; A32733) at room temperature for 45 minutes in the dark. The cells were washed and stained with Hoescht (Thermo Fisher Scientific; H3570) at room temperature for 15 minutes in the dark. Images were obtained and quantified using the ImageXpress Micro Confocal High-Content Imaging System (Molecular Devices). A total of 16 fields were obtained per image for each timepoint and treatment groups.

NCI-H1703 cells [2] = assay: Cell Titer Glo cellular cytotoxicity assay, NCI-H1703; format: cell-based; conditions: Homo sapiens, NCI-H1703, 144 h; H1703, 6 days, representative experiment, unit not readable in the picture; read-out: IC50 (Fig. 3B)
Procedure: (§1) Cells were seeded in 384-well plates at a density of 300–500 cells per well (depending upon the doubling time for each cell line) with 40 μL of media per well using a multidrop combi cell dispenser (Thermo Fisher Scientific). The cells were incubated at room temperature for 30 minutes to minimize edge effects. The next day, the cells were treated with drugs of interest at various concentrations using a D300e digital dispenser (Tecan). Following treatment, the cells were cultured at 37°C for 6 days. On day 6 after treatment initiation, the plates and Cell Titer Glo (CTG; Promega; PRG9243) were incubated at room temperature (protected from light) for 1 hour to reach equilibrium. After incubation, half of the CTG volume was added to one volume of cell culture medium in each well. The plates were then shaken for 30 seconds to induce cell lysis. The cells were then incubated at room temperature for 12 minutes protected from light to stabilize the luminescence signal. The luminescent cell viability was measured using an EnVision plate reader (PerkinElmer). For cell viability, the data were analyzed using Excel (Microsoft) and GraphPad Prism (RRID:SCR_002798; Dotmatics). […] For synergy, the data were analyzed using Excel, SynergyFinder ([28]), and Combenefit ([29]). […]

A549 cells = assay: CTG combination synergy (Bliss) with ZL-2201, A549; format: cell-based, human; conditions: 6 days of combination treatment
Procedure: Cells were seeded in 384-well plates at a density of 300–500 cells per well (depending upon the doubling time for each cell line) with 40 μL of media per well using a multidrop combi cell dispenser (Thermo Fisher Scientific). The cells were incubated at room temperature for 30 minutes to minimize edge effects. The next day, the cells were treated with drugs of interest at various concentrations using a D300e digital dispenser (Tecan). Following treatment, the cells were cultured at 37°C for 6 days. On day 6 after treatment initiation, the plates and Cell Titer Glo (CTG; Promega; PRG9243) were incubated at room temperature (protected from light) for 1 hour to reach equilibrium. After incubation, half of the CTG volume was added to one volume of cell culture medium in each well. The plates were then shaken for 30 seconds to induce cell lysis. […] The luminescent cell viability was measured using an EnVision plate reader (PerkinElmer). For cell viability, the data were analyzed using Excel (Microsoft) and GraphPad Prism (RRID:SCR_002798; Dotmatics). The data were first transformed to a log scale on the X-axis, then transformed values were normalized, and finally, normalized values were fitted using a nonlinear regression curve fit. For synergy, the data were analyzed using Excel, SynergyFinder ([28]), and Combenefit ([29]). […]

NCI-H1703 cells [3] = conditions: NCI-H1703, Bliss, 6 days of combination treatment
Procedure: as §1

## COc1cccc2c1C(=O)c1c(O)c3c(c(O)c1C2=O)C[C@@](O)(C(=O)CO)C[C@@H]3O[C@H]1C[C@H](N)[C@H](O)[C@H](C)O1 [doxorubicin]
NCI-H1703 cells [1]
  cleaved caspase 3 (apoptosis) level: did not alter
  phospho-histone H3 (mitotic index) level: did not alter
NCI-H1703 cells [2]
  IC50: 4 nM
A549 cells
  synergy score in combination with ZL-2201: > 30
NCI-H1703 cells [3]
  synergy score in combination with ZL-2201: > 30
